Like-named read-outs stand apart in the source and are kept apart here.
Tests used:
[1] = test system: SKOV-3 (ATCC HTB-77); experiment: SKOV-3 EdU incorporation cell proliferation assay (CDK4/6-dependent); format: cell-based; conditions: for IC50: Homo sapiens, cellular assay, read-out: CDK4/6 SKOV-3 IC50; for selectivity for CDK2 over CDK4 compared with Comparator E: SKOV-3/OVISE fold-selectivity cellular assay data; for FS SKOV-3/OVISE: fold selectivity, cellular IC50 ratio
Procedure, shortened: (§1)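 EdU incorporation (0.5 μM final, last 8 h) follows a 16 h compound exposure at 37 °C, 5% CO2 in RPMI plus 10% FBS, 0.5% DMSO. After fixation, imaging scores EdU-positive cells; a 4-parameter logistic fit of that fraction gives IC50.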

[2] = test system: HCT116 cells; experiment: p-H3 HCT-116 mitotic release cell proliferation assay (cellular CDK1); format: cell-based; conditions: Homo sapiens, HCT-116; Table O, cellular assay; read-out: CDK1 p-H3 IC50
Procedure, shortened: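 Phospho-Histone H3 (Ser10) in lysates was quantified by a two-antibody HTRF FRET read (≥2 h, room temperature). Before this, HCT116 cells held in mitosis by 16 h of 500 nM nocodazole were treated with compound for 4 h at 37 °C, 0.1% DMSO.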

[3] = biological target: T1, Cyclin Dependent Kinase 2/Cyclin E1 (CDK2-cycE1) (Homo sapiens, UniProt P24941); experiment: CDK2-cycE1 TR-FRET (LANCE) enzyme assay; format: biochemical; conditions: for FS CDK1/CDK2 / FS CDK4/CDK2: fold selectivity; for FS CDK1/CDK2: enzymatic CDK1 Ki over CDK2 Ki; for FS CDK4/CDK2: enzymatic CDK4 Ki over CDK2 Ki; for CDK2 Ki fold change in potency versus Comparator D / CDK2 Ki fold change in potency versus Comparator E: in brackets after CDK2 Ki
T1 construct: purchased ProQinase 0050-0055-1
Procedure, shortened: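 Kinase reaction buffer: 50 mM HEPES pH 7.5, 10 mM MgCl2, 2 mM TCEP, 0.05% BGG, 0.01% Brij 35, with 30 min compound–enzyme pre-incubation.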

[4] = biological target: T2, Cyclin Dependent Kinase 1/Cyclin A2 (CDK1-cycA2) (Homo sapiens, UniProt P06493); experiment: CDK1-cycA2 TR-FRET (Lance) enzyme assay; format: biochemical; conditions: for Ki: Table O, enzymatic assay; for FS CDK1/CDK2: fold selectivity, enzymatic Ki ratio
T2 construct: purchased ProQinase 0134-0054-1
Procedure, shortened: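 TR-FRET (Lance) detection of phospho-4E-BP1 with a europium-labelled antibody after EDTA quench (15 mM final); signal taken as acceptor/donor ratio. Enzyme and compound were pre-incubated 30 min in HEPES pH 7.5 buffer with MgCl2, TCEP, BGG and Brij 35. Ki derived by Morrison fit.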

[5] = biological target: T3, Cyclin Dependent Kinase 4/Cyclin D3 (CDK4-cycD3) (Homo sapiens, UniProt P11802); experiment: CDK4-cycD3 TR-FRET (LANCE) enzyme assay; format: biochemical; conditions: for Ki: Table O, enzymatic assay; for FS CDK4/CDK2: fold selectivity, enzymatic Ki ratio
T3 construct: purchased Carna Biosciences 04-105
Procedure, shortened: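 Compound dose responses pre-incubated 30 min with enzyme mix in 50 mM HEPES pH 7.5, 10 mM MgCl2, 2 mM TCEP, 0.05% BGG, 0.01% Brij 35. Reaction quenched with EDTA (15 mM final); Eu-anti-phospho-4E-BP1 TR-FRET detection, acceptor/donor ratio. Ki derived by Morrison equation.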

[6] = test system: OVISE (JCRB1043, CCNE1-amplified); experiment: OVISE EdU incorporation cell proliferation assay (CDK2-dependent); format: cell-based; conditions: for CDK2 cell potency compared with Comparator E: CDK2 OVISE cellular assay data; for IC50 / FS SKOV-3/OVISE / FS p-H3/OVISE: Table O; for IC50: cellular assay, read-out: CDK2 OVISE IC50; for FS SKOV-3/OVISE / FS p-H3/OVISE: fold selectivity; for FS SKOV-3/OVISE: cellular SKOV-3 IC50 over OVISE IC50; for FS p-H3/OVISE: cellular p-H3 IC50 over OVISE IC50; for CDK2 OVISE IC50 fold change in potency versus Comparator D: Table R; for CDK2 OVISE IC50 fold change in potency versus Comparator D / CDK2 OVISE IC50 fold change in potency versus Comparator E: in brackets after OVISE IC50; for CDK2 OVISE IC50 fold change in potency versus Comparator E: Table S
Procedure, shortened: as §1

[7] = Table O, enzymatic assay, read-out: CDK2 Ki
[8] = Table R, enzymatic assay, read-out: CDK2 Ki
[9] = Table S, enzymatic assay, read-out: CDK2 Ki

T3 sequence (P11802 whole entry): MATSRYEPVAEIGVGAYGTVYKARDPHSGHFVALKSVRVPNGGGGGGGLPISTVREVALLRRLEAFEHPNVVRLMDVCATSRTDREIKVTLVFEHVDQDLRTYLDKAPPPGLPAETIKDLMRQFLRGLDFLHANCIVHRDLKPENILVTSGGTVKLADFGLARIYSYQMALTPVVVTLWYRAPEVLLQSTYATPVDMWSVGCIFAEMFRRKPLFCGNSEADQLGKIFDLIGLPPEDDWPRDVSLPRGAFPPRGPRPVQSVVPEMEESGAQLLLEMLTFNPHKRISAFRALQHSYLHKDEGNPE
T3 sequence (P30281 whole entry partner): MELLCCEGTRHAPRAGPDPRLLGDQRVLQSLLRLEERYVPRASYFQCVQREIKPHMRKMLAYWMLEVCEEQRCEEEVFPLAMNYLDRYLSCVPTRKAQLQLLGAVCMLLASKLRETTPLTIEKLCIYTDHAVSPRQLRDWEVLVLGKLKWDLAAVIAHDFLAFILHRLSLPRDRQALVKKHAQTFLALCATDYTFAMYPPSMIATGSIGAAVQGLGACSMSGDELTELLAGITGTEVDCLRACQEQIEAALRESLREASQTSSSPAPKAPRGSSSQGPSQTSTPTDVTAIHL
T2 sequence (P06493 whole entry): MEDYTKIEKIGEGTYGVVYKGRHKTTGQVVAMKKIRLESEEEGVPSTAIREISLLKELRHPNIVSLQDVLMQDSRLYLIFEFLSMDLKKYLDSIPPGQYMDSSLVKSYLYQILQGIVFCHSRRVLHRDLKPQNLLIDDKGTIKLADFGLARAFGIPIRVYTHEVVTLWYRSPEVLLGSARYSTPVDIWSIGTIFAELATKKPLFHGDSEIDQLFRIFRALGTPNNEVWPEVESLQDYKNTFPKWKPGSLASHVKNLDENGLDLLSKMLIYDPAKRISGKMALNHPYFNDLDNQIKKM
T2 sequence (P20248 whole entry partner): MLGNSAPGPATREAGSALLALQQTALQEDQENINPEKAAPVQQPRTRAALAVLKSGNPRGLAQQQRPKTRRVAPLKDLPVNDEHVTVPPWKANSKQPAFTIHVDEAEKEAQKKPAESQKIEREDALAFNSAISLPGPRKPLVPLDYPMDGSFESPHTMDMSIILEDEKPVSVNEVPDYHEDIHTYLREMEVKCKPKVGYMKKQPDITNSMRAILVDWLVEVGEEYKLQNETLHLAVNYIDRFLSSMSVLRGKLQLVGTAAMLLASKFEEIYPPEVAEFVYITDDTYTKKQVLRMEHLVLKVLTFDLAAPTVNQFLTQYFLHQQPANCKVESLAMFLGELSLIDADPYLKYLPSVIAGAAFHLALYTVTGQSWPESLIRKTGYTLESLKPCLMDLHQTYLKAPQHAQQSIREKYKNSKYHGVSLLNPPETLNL

| SMILES | IC50 ([1]; SK-OV-3, Table O) [nM] | FS SKOV-3/OVISE increased over Comparator D, (+) sign ([1]; Table R) | FS SKOV-3/OVISE ([1]; Table R) | FS SKOV-3/OVISE ([1]; Table S) | IC50 [2] [nM] | Ki [3, 7] [nM] | FS CDK1/CDK2 ([3]; Table O) | FS CDK4/CDK2 ([3]; Table O) | Ki [3, 8] [nM] | CDK2 Ki fold change in potency versus Comparator D ([3]; Table R) [fold] | Ki [3, 9] [nM] | CDK2 Ki fold change in potency versus Comparator E ([3]; Table S) [fold] | Ki [4] [nM] | FS CDK1/CDK2 increased over Comparator D, (+) sign ([4]; Table R) | FS CDK1/CDK2 ([4]; Table R) | FS CDK1/CDK2 ([4]; Table S) | Ki [5] [nM] | FS CDK4/CDK2 increased over Comparator D, (+) sign ([5]; Table R) | FS CDK4/CDK2 ([5]; Table R) | FS CDK4/CDK2 ([5]; Table S) | also measured |
| --- | --- | --- | --- | --- | --- | --- | --- | --- | --- | --- | --- | --- | --- | --- | --- | --- | --- | --- | --- | --- | --- |
| Cc1cc(Nc2cc([C@H]3CC[C@@H](OC(=O)NC(C)(C)C)C3)[nH]n2)nn(C)c1=O [Example 4D, (1R,3S)-3-(3-((1,5-dimethyl-6-oxo-1,6-dihydropyridazin-3-yl)amino)-1H-pyrazol-5-yl)cyclopentyl tert-butylcarbamate] | 1500 | (+) | 58 | 58 | 9.2 | < 0.1 | >59 | >620 | < 0.1 | 27 | < 0.1 | 5.2 | 3.7 | (+) | > 59 | >59 | 39 | (+) | > 620 | > 620 | selectivity for CDK2 over CDK4 compared with Comparator E [1]: increase in selectivity for CDK2 over CDK4; FS SKOV-3/OVISE increased over Comparator E, (+) sign ([1]; Table S): (+); Ki ([3]; read-out: CDK2 activity / potency (enzymatic assay)): ≤ 1 nM; FS CDK4/CDK2 increased over Comparator E, (+) sign ([5]; Table S): (+); CDK2 cell potency compared with Comparator E [6]: more potent CDK2 cell inhibitors compared to Comparator E; IC50 [6]: 26 nM; FS SKOV-3/OVISE [6]: 58; FS p-H3/OVISE [6]: 0.35; CDK2 OVISE IC50 fold change in potency versus Comparator D [6]: 146 fold; CDK2 OVISE IC50 fold change in potency versus Comparator E [6]: 6.5 fold |
| CNC(=O)c1ccc(Nc2cc([C@H]3CC[C@@H](OC(=O)NC(C)(C)C)C3)[nH]n2)nc1 [Example 4E, (1R,3S)-3-(3-((5-(methylcarbamoyl)pyridin-2-yl)amino)-1H-pyrazol-5-yl)cyclopentyl tert-butylcarbamate] | 2600 | (+) | 27 | 27 | 100 | 1.6 | 47 | 53 | 1.6 | 1.7 | 1.6 | 0.3 | 75 | (+) | 47 | 47 | 84 | (+) | 53 | 53 | IC50 ([1]; SK-OV-3, Table R): 2600 nM; IC50 ([1]; SK-OV-3, Table S): 2600 nM; selectivity for CDK2 over CDK4 compared with Comparator E [1]: increase in selectivity for CDK2 over CDK4; FS SKOV-3/OVISE increased over Comparator E, (+) sign ([1]; Table S): (+); FS CDK4/CDK2 increased over Comparator E, (+) sign ([5]; Table S): (+); CDK2 cell potency compared with Comparator E [6]: more potent CDK2 cell inhibitors compared to Comparator E; IC50 [6]: 96 nM; FS SKOV-3/OVISE [6]: 27; FS p-H3/OVISE [6]: 1.1; CDK2 OVISE IC50 fold change in potency versus Comparator D [6]: 40 fold; CDK2 OVISE IC50 fold change in potency versus Comparator E [6]: 1.8 fold |
| CNC(=O)c1ccnc(Nc2cc([C@H]3CC[C@@H](OC(=O)NC(C)(C)C)C3)[nH]n2)c1 [Example 4F, (1R,3S)-3-(3-((4-(methylcarbamoyl)pyridin-2-yl)amino)-1H-pyrazol-5-yl)cyclopentyl tert-butylcarbamate] | 1700 | (+) | 8.9 | 8.9 | 66 | 2.5 | 21 | 15 | 2.5 | 1.1 | 2.5 | 0.2 | 52 | (+) | 21 | 21 | 37 | (+) | 15 | 15 | IC50 ([1]; SK-OV-3, Table R): 1700 nM; IC50 ([1]; SK-OV-3, Table S): 1700 nM; IC50 [6]: 190 nM; FS SKOV-3/OVISE [6]: 8.9; FS p-H3/OVISE [6]: 0.35; CDK2 OVISE IC50 fold change in potency versus Comparator D [6]: 20 fold; CDK2 OVISE IC50 fold change in potency versus Comparator E [6]: 0.9 fold |
| CC(C)(C)NC(=O)O[C@@H]1CC[C@H](c2cc(Nc3ccccn3)n[nH]2)C1 [Example 4G, (1R,3S)-3-(3-(pyridin-2-ylamino)-1H-pyrazol-5-yl)cyclopentyl tert-butylcarbamate] | 1500 | (+) | 6.3 | 6.3 | 240 | 1.7 | 44 | 16 | 1.7 | 1.6 | 1.7 | 0.3 | 75 | (+) | 44 | 44 | 27 | (+) | 16 | 16 | IC50 ([1]; SK-OV-3, Table R): 1500 nM; IC50 ([1]; SK-OV-3, Table S): 1500 nM; IC50 [6]: 240 nM; FS SKOV-3/OVISE [6]: 6.3; FS p-H3/OVISE [6]: 1.0; CDK2 OVISE IC50 fold change in potency versus Comparator D [6]: 16 fold; CDK2 OVISE IC50 fold change in potency versus Comparator E [6]: 0.7 fold |
| CC(C)(C)NC(=O)O[C@@H]1CC[C@H](c2cc(Nc3ccncc3)n[nH]2)C1 [Example 4H, (1R,3S)-3-(3-(pyridin-4-ylamino)-1H-pyrazol-5-yl)cyclopentyl tert-butylcarbamate] | 950 | (+) | 25 | 25 | 54 | 2 | 90 | 55 | 2 | 1.4 | 2 | 0.3 | 180 | (+) | 90 | 90 | 110 | (+) | 55 | 55 | selectivity for CDK2 over CDK4 compared with Comparator E [1]: increase in selectivity for CDK2 over CDK4; FS SKOV-3/OVISE increased over Comparator E, (+) sign ([1]; Table S): (+); FS CDK1/CDK2 increased over Comparator E, (+) sign ([4]; Table S): (+); FS CDK4/CDK2 increased over Comparator E, (+) sign ([5]; Table S): (+); CDK2 cell potency compared with Comparator E [6]: more potent CDK2 cell inhibitors compared to Comparator E; IC50 [6]: 38 nM; FS SKOV-3/OVISE [6]: 25; FS p-H3/OVISE [6]: 1.4; CDK2 OVISE IC50 fold change in potency versus Comparator D [6]: 100 fold; CDK2 OVISE IC50 fold change in potency versus Comparator E [6]: 4.4 fold |
